{"source": "patent US9725417B2", "about": "“Cdc42 inhibitor and uses thereof” (priority 2011, dated 2017)", "key": {"active Cdc42": {"system": "active Cdc42", "assay": "Immunofluorescence staining of active Cdc42 in Swiss 3T3 cells", "format": "cell-based, mouse", "conditions": "50 uM ZCL278 or 10 uM NSC23766, Cdc42 agonist 1 unit/ml", "method": "(§1) Immunofluorescent staining: Swiss3T3 cells were grown on coverslips to 30% confluence. In serum-deprived culture, cells were treated with 10 uM NSC23766 or 50 uM ZCL278 for 1 hour followed by 1 unit/mL Cdc42 agonists (Cytoskeleton Products) treatment for 1 minute. Added agonist alone was used as a positive control while DMSO was used as a negative control. Cells on the coverslips were fixed in 4% paraformaldehyde for 15 minutes, and in 0.2% Triton X-100 for permeabilization for 15 minutes and then blocked in 10% BSA for 30 minutes.\n(§2) Incubation with antibodies: anti-active Cdc42 (mouse antibody, Neweast Biosciences); phosphorylated RhoA antibody (rabbit antibody, Santa Cruz Biotechnology Company); GM130 antibody (mouse antibody, BD Biosciences Company). The next step was to apply corresponding secondary antibody. Rhodamine, Phalloidin was incubated for 1 hour at room temperature to observe filamentous actin under the Zeiss Axiovert fluorescent light microscopy of cells staining. Image processing software MetaMorph-5 was used to randomly select cells in randomly selected five-point pixels to obtain the average number of each group for pixel intensity values.\n(§3) Determination of selective inhibition of Cdc42 activation by ZCL278 at the cellular level. […] FIG. 3C: Pixel intensity of phospho-RhoA in cells after treatments with Activator, ZCL278, or NSC23766 was quantified. […]"}, "PC-3 cells [1]": {"system": "PC-3 cells", "assay": "Trypan blue dye exclusion cell viability in PC-3 cells", "format": "cell-based", "conditions": "50 μM ZCL278 or 10 μM NSC23766, 24 hours, PC-3, trypan blue", "method": "Examination of cell survival: PC3 cells were plated at 75000/ml for 48 hours, serum was removed and 50 uM ZCL278 or 10 uM NSC23766 was added, and then continue to culture for 24 hours before staining with trypan blue to determine cell survival rate.\nIn order to ensure that decreases in cellular migration seen with ZCL278 treatment was due to Cdc42 inhibition (or Rae inhibition when treated with NSC23766) rather than cell death, cell viability was tested using the trypan blue dye exclusion assay. PC-3 cells were arrested in G0, and then 50 μM ZCL278 or 10 μM NSC23766 was applied for 24 hours. […] Therefore, the differences seen in migratory ability is due to ZCL278-mediated Cdc42 inhibition or NSC23766-mediated Rac inhibition and not cell death."}, "PC-3 cells [2]": {"system": "PC-3 cells", "assay": "Wound healing (migration) assay in PC-3 cells", "format": "cell-based, human", "conditions": "24 hours; for wound closure: control 41%", "method": "Filopodia are dynamic structures that aid cells in pathfinding and migration, and are largely controlled by Cdc42 activity. Using a metastatic line of human prostate cancer cells (PC-3), a wound healing assay was used in order to elucidate the effects of ZCL278 on cellular migration. 1 unit/ml Cdc42 activator; 50 uM or 5 uM of ZCL278; and 10 uM […] respectively, were used to treat cells for 24 hours, with Cdc42 activator as positive control, and no treatment as negative control. Cells were photographed at 0 and 24 hours following drug treatments and MetaMorph software was used to determine the distances cells had migrated. Black line indicates the boundary of wounded area. Each experiment was tested with p value (p<0.05).\nThe experiment was repeated three times and the means were obtained:**; p<0.01,*:p<0.05. Wound closure was less pronounced at 50 μM (8%) than 5 μM (30%) concentrations."}, "phosphorylated RhoA": {"system": "phosphorylated RhoA", "assay": "Immunofluorescence staining of phosphorylated RhoA in Swiss 3T3 cells", "format": "cell-based, mouse", "conditions": "50 uM ZCL278, 10 uM NSC23766 or 1 unit/ml Cdc42 agonist", "method": "as §1, §2, §3"}, "GTP-bound (active) Cdc42": {"target": "T1, GTP-bound (active) Cdc42 (Mus musculus, UniProt P60766)", "T1 construct": "endogenous in cells; host or cells: Swiss 3T3 fibroblasts (mouse)", "T1 sequence (P60766 whole entry)": "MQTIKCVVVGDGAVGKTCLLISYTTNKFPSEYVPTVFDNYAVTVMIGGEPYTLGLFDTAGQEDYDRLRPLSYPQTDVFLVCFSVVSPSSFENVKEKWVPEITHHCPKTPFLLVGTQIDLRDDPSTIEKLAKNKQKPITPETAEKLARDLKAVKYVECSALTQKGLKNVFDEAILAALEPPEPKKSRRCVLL", "assay": "G-LISA of GTP-bound (active) Cdc42 in Swiss 3T3 lysates", "format": "cell-based", "conditions": "then 1 unit/mL Cdc42 activator 2 minutes", "method": "Serine 71 phosphorylation can occur on both Rac and Cdc42. To directly assess specific Cdc42 activation and inactivation, a G-LISA, an ELISA-based assay that allows a quantitative determination of the levels of GTP-bound (active) Cdc42 in cellular lysates was utilized. Serum-starved Swiss 3T3 fibroblasts were incubated for 1 hour with 50 μM ZCL278 or 10 μM NSC23766 (Rac inhibitor), followed by 2 minutes of stimulation with 1 unit/mL Cdc42 activator.\nFinally, the ability of NSC23766 to cross-inhibit Cdc42 activation was analyzed. NSC23766 was developed in a similar manner as ZCL278; however, it is specific to Rac and should therefore act as an additional negative control in this assay.\nG-LiSA kit: Swiss 3T3 cells were cultured to 40% of the growth density, then removed serum and cultured for 48 hours, treated with Cdc42 agonist for 1 minute, and treated with the 50 uM ZCL278 and 10 uM NSC23766. Cell lysis proteins were extracted according to kit instructions, and analysis of the quantification of total protein concentration to be 0.15 mg/ml. Untreated cells or cells treated with buffer were used as negative control while the agonist treated cells and active Cdc42 protein were used as a positive control. Enzyme linked immunosorbent assay measured the absorbance value of each sample 490 nm light wave."}, "GM130": {"system": "GM130", "assay": "GM130-docked Golgi organization in Swiss 3T3 cells", "format": "cell-based, mouse", "conditions": "50 uM ZCL278 or 10 uM NSC23766, Swiss 3T3", "method": "as §1\nas §2, with “values. […]” for “values.”"}, "Solubility determination": {"assay": "Solubility determination", "format": "physicochemical"}, "phospho-WASP": {"system": "phospho-WASP", "assay": "Western blot of phospho-WASP in PC-3 cells", "format": "cell-based, human", "conditions": "50 μM, up to 15 minutes", "method": "Wiskott-Aldrich syndrome Protein WASP) is a downstream effector of Cdc42 activation. Tyrosine phosphorylation WASP is linked to rapid Cdc42 degradation following its activation. […] Thus, ZCL278 inhibits Rac/Cdc42 phosphorylation in a time-dependent manner and maintains tyrosine phosphorylation of WASP.\n(§4) The Western blot: PC3 cells cultured to approximately 70% of the density, then removed serum and cultured for 16 hours, with addition of drugs: 1 unit/mL Cdc42 agonist (cytoskeleton) 5 uM, 50 uM ZCL278 to treat cells for 5, 10, and 15 minutes respectively. Cell lysis buffer (Formulation: 50 mM Tris buffer solution pH 7.5, 10 mM magnesium chloride, 0.5 M sodium chloride, 1% Triton X-100 and protease inhibitors) cell lysis and centrifuged at 14000 rpm and 4° C. to obtain extracted protein samples. Western blot analysis was conducted using antibody: phosphorylated Rac1/Cdc42 (Milipore Company), phosphorylated WASP (Assay Biotech Company), all at 1:1000, and GAPDH antibody (Calbiochem Company) on PVDF membrane for chemiluminescence development."}, "Cdc42 [3]": {"target": "T2, Cdc42 (Homo sapiens, UniProt P60953)", "T2 sequence (P60953 whole entry, species assumed)": "as the sequence (P60766 whole entry) above", "assay": "Fluorescence titration of purified Cdc42 with ZCL278 (tryptophan fluorescence)", "format": "binding", "conditions": "emission monitored at 350 nm", "method": "The binding affinity of ZCL278 and Cdc42 was assessed by using two independent biophysical methods. First, fluorescence titration of purified Cdc42 ZCL278 was carded out by monitoring the change of fluorescence intensity of a tryptophan residue on CAc42 upon ZCL278 binding. As ZCL278 has a weak absorption peak at 310 nm, to avoid any experimental error that might result from potential fluorescence quenching by ZCL278, the fluorescence emission of Cdc42 was monitored at 350 nm, at which ZCL278 has a negligible absorption. […] These species in solution may have modifying effects on membrane transport and binding to Cdc42."}, "[4]": {"system": "Cdc42-mediated microspike/filopodia formation in Swiss 3T3 fibroblasts", "assay": "Cdc42-mediated microspike/filopodia formation in serum-starved Swiss 3T3 fibroblasts", "format": "cell-based, mouse", "conditions": "50 μM for 1 hour, then Cdc42 activator 2 minutes", "method": "30 selected ZCL compounds were assessed for their ability to inhibit Cdc42-mediated microspike/filopodia formation in serum-starved Swiss 3T3 fibroblasts. Actin-based microspikes/filopodia are characteristic of Cdc42 activity in cultured fibroblastic cells. […] When arrested fibroblasts were briefly stimulated with 1 unit/mL of a commercial Cdc42 activator, a dramatic increase in microspike number and decrease in stress fibers occurred (FIG. 2A, Activator). Compound ZCL278 was applied at 50 μM for 1 hour and then stimulated with the Cdc42 activator for 2 minute. The cell periphery of ZCL278-treated cells resembles control cells with few microspikes (FIG. 2A, ZCL278)."}, "[5]": {"system": "primary neonatal cortical neurons", "assay": "Neuronal branching in primary neonatal cortical neurons", "format": "cell-based, mouse", "conditions": "50 μM for 5 and 10 minutes, 5 days in vitro", "method": "Primary neonatal day-one mouse brain was incubated with 0.25% trypsin HBSS for 15 minutes at 37° C., gently separated neurons were plated on poly-L-lysine coated coverslips, incubated with DMEM containing 10% bovine serum for 16 hours, then the media was changed to Neurobasal (Invitrogen). At 5 days in vitro, the cells were treated with either DMSO or 50 uM ZCL278 for 5 or 10 minutes, then fixed in 4% paraformaldehyde for 15 minutes. Fluorescein-phalloidin was applied to stain for F-actin structure and the neuronal morphology was observed under the Zeiss light microscope.\n(§5) Time-lapsed video light microscopy was used to observe the effects of ZCL278 on neuronal growth cone dynamics, Hamamatsu Orca digital camera was used to record the cell images under 63× magnification for 10 minute. 300 ms exposure for imaging was used to minimize phototoxicity. The images were analyzed using MetaMorph software and statistical analysis was performed. At 5 days cultured in vitro, cortical neurons extended neurites with multiple branches (FIG. 6A, Control). 50 μM of ZCL278 was applied for 5 and 10 minutes, while DMSO-treated neurons were maintained as negative controls."}, "phospho-Rac/Cdc42": {"system": "phospho-Rac/Cdc42", "assay": "Western blot of phospho-Rac/Cdc42 (Serine 71) in PC-3 cells", "format": "cell-based, human", "conditions": "50 μM for 5, 10 and 15 minutes", "method": "First, Cdc42 activation was investigated in human metastatic prostate cancer PC-3 cells that were treated with the Cdc42 activator or 50 μM ZCL278 for 5, 10, and 15 minutes. Serine 71 phosphorylation is known to negatively regulate Rac/Cdc42 activity, thus an increase: in phospho-Rac/Cdc42 expression is indicative of a decrease in active (GTP-bound) Rac/Cdc42.\nas §4"}, "[6]": {"system": "growth cone filopodia of cortical neurons", "assay": "Time-lapse video microscopy of growth cone dynamics in cortical neurons", "format": "cell-based, mouse", "conditions": "ZCL278 treatment, cortical neuron growth cone", "method": "as §5\nCdc42 is also widely known to control filopodia and microspikes at the leading edge of migrating growth cones. […] Thus, these studies further support ZCL278 as an effective small-molecule inhibitor of Cdc42-mediated neuronal branching and growth cone motility."}, "Cdc42 [7]": {"target": "T2, Cdc42", "assay": "Surface plasmon resonance, purified Cdc42 immobilized on CM5 chips", "format": "binding", "conditions": "SPR"}}}
{"compound": "CCN(CC)CCCC(C)Nc1nc(C)cc(Nc2ccc3nc(C)cc(N)c3c2)n1", "note": "(stereo not drawn) [NSC23766, reference compound]", "values": [{"measurement": "perinuclear distribution and immunoreactivity of active Cdc42", "setting": "active Cdc42", "value": "did not have similar effects"}, {"measurement": "cell viability versus non-treated cells", "setting": "PC-3 cells [1]", "value": "no difference in viability"}, {"measurement": "cellular migration", "setting": "PC-3 cells [2]; 10 uM", "value": "significantly reduced"}, {"measurement": "pixel intensity of phospho-RhoA", "setting": "phosphorylated RhoA", "value": "did not alter the phosphorylation RhoA"}, {"measurement": "effect on GTP-Cdc42 content", "setting": "GTP-bound (active) Cdc42; 10 μM NSC23766 1 hour", "value": "does not reduce GTP-Cdc42 content"}, {"measurement": "GM130 immunoreactivity and distribution", "setting": "GM130", "value": "did not significantly after GM130 expression or distribution"}]}
{"compound": "Cc1cc(C)nc(NS(=O)(=O)c2ccc(NC(=S)NC(=O)COc3ccc(Br)cc3Cl)cc2)n1", "note": "[ZCL278, 4-(3-(2-(4-Bromo-2-chlorophenoxy)acetyl)thioureido)-N-(4,6-dimethylpyrimidin-2yl)benzenesulfonamide]", "values": [{"measurement": "solubility", "setting": "Solubility determination", "value": 181, "unit": "µM"}, {"measurement": "perinuclear distribution and immunoreactivity of active Cdc42", "setting": "active Cdc42", "value": "obviously reduced this distribution"}, {"measurement": "phospho-WASP expression", "setting": "phospho-WASP", "value": "does not suppress phospho-WASP activity"}, {"measurement": "Kd", "setting": "Cdc42 [3]", "value": 6.4, "unit": "µM"}, {"measurement": "inhibition of microspike formation", "setting": "[4]", "value": "obvious inhibition of microspike formation"}, {"measurement": "cell viability versus non-treated cells", "setting": "PC-3 cells [1]", "value": "no difference in viability"}, {"measurement": "neuronal branch number", "setting": "[5]", "value": "significantly reduced"}, {"measurement": "Rac/Cdc42 phosphorylation (Serine 71)", "setting": "phospho-Rac/Cdc42", "value": "time-dependent increase"}, {"measurement": "wound closure", "setting": "PC-3 cells [2]; 5 μM", "value": 30, "unit": "%"}, {"measurement": "wound closure", "setting": "PC-3 cells [2]; 50 μM", "value": 8, "unit": "%"}, {"measurement": "pixel intensity of phospho-RhoA", "setting": "phosphorylated RhoA", "value": "did not alter the phosphorylation RhoA"}, {"measurement": "time to retraction of filopodia", "setting": "[6]", "value": "≤ 4", "unit": "min"}, {"measurement": "Kd", "setting": "Cdc42 [7]", "value": 11.4, "unit": "µM"}, {"measurement": "decrease in GTP-Cdc42 content compared with cells treated solely with the activator", "setting": "GTP-bound (active) Cdc42; 50 μM ZCL278 1 hour", "value": "~80", "unit": "%"}, {"measurement": "GM130 immunoreactivity and distribution", "setting": "GM130", "value": "clear reduction of GM130 immunoreactivity"}]}
